According to ChEMBL document CHEMBL1201862, “PubChem BioAssay data set” (2004):
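In this assay, cells in 96-well plates receive the compound at five concentrations for 48 hours. Endpoints are linearly interpolated between the surrounding concentrations. GI50 = concentration required for 50% inhibition of growth.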 Activity calls are given as the source filed them. Rule as the data show it: active = GI50 up to about 1.1 µM and inactive = higher.

What was measured:
Assay in all cases: NCI anticancer screen, dose series, 48 h
[1] = system: BT-549
[2] = system: A498
[3] = system: ACHN
[4] = system: 786-0
[5] = system: OVCAR-8
[6] = system: MDA-MB-231
[7] = system: A549
[8] = system: SF-539
[9] = system: SR
[10] = system: TK-10
[11] = system: SK-MEL-5
[12] = system: NCI-H23
[13] = system: HCT-15
[14] = system: CAKI-1
[15] = system: U-251
[16] = system: HCC 2998
[17] = system: UO-31
[18] = system: DU-145
[19] = system: PC-3
[20] = system: RXF 393

| SMILES | GI50 [1] | GI50 [2] | GI50 [3] | GI50 [4] | GI50 [5] | GI50 [6] | GI50 [7] | GI50 [8] | GI50 [9] | GI50 [10] | GI50 [11] | GI50 [12] | GI50 [13] [µM] | GI50 [14] | GI50 [15] | GI50 [16] | GI50 [17] | GI50 [18] | GI50 [19] | GI50 [20] |
| --- | --- | --- | --- | --- | --- | --- | --- | --- | --- | --- | --- | --- | --- | --- | --- | --- | --- | --- | --- | --- |
| Cc1ccc(Cc2n[nH]c(=O)n2N2C(=O)c3ccccc3C2=O)cc1 | > 100 µM (inactive) | > 100 µM (inactive) | > 100 µM (inactive) | > 100 µM (inactive) | > 100 µM (inactive) | > 100 µM (inactive) | > 100 µM (inactive) | > 100 µM (inactive) | > 100 µM (inactive) | > 100 µM (inactive) | > 100 µM (inactive) | > 100 µM (inactive) | > 100 | > 100 µM (inactive) | > 100 µM (inactive) | > 100 µM (inactive) | > 100 µM (inactive) | > 100 µM (inactive) | > 100 µM (inactive) | – |
| O=C1c2ccccc2CN1c1ccc(O)cc1 | > 100 µM (inactive) | > 100 µM (inactive) | > 100 µM (inactive) | > 100 µM (inactive) | > 100 µM (inactive) | > 100 µM (inactive) | > 100 µM (inactive) | > 100 µM (inactive) | > 100 µM (inactive) | > 100 µM (inactive) | > 100 µM (inactive) | > 100 µM (inactive) | > 100 | > 100 µM (inactive) | > 100 µM (inactive) | > 100 µM (inactive) | – | > 100 µM (inactive) | > 100 µM (inactive) | > 100 µM (inactive) |
| Nc1nncc2[nH]cnc12 | 26.9 µM (inactive) | > 62.2 µM (inactive) | 50.1 µM (inactive) | 48.3 µM (inactive) | 22.5 µM (inactive) | 99.5 µM (inactive) | 44.7 µM (inactive) | 94.4 µM (inactive) | > 100 µM (inactive) | > 50.1 µM (inactive) | 24.2 µM (inactive) | – | 44.4 | 66.2 µM (inactive) | > 64.3 µM (inactive) | > 100 µM (inactive) | > 100 µM (inactive) | > 62.5 µM (inactive) | 69 µM (inactive) | > 100 µM (inactive) |
| O=C(NC1CCCCC1NC(c1ccccc1)(c1ccccc1)c1ccccc1)C(=O)NC1CCCCC1NC(c1ccccc1)(c1ccccc1)c1ccccc1 (stereo unspecified) | 28.1 µM (inactive) | 28.9 µM (inactive) | 92 µM (inactive) | 53.7 µM (inactive) | > 100 µM (inactive) | > 100 µM (inactive) | > 100 µM (inactive) | 51.2 µM (inactive) | > 100 µM (inactive) | > 100 µM (inactive) | > 100 µM (inactive) | > 100 µM (inactive) | > 100 | > 100 µM (inactive) | 21 µM (inactive) | > 100 µM (inactive) | 43.6 µM (inactive) | > 100 µM (inactive) | > 100 µM (inactive) | – |
| Cc1ccc(SCC(OCn2cnc3c(Cl)nc(N)nc32)[C@H](C)F)cc1 (stereo partly specified) | 52.4 µM (inactive) | – | 37.5 µM (inactive) | 85.1 µM (inactive) | 63 µM (inactive) | 46.7 µM (inactive) | 69.5 µM (inactive) | > 100 µM (inactive) | 28.2 µM (inactive) | > 100 µM (inactive) | 18.1 µM (inactive) | 50.9 µM (inactive) | > 100 | > 100 µM (inactive) | 98.4 µM (inactive) | > 100 µM (inactive) | 59.3 µM (inactive) | > 100 µM (inactive) | 60.5 µM (inactive) | – |
| CCCCC(=O)c1ccc2ccccc2c1O | > 100 µM (inactive) | > 100 µM (inactive) | > 100 µM (inactive) | > 100 µM (inactive) | > 100 µM (inactive) | 66.4 µM (inactive) | – | > 100 µM (inactive) | 62.5 µM (inactive) | > 100 µM (inactive) | > 100 µM (inactive) | > 100 µM (inactive) | > 100 | > 100 µM (inactive) | > 100 µM (inactive) | > 100 µM (inactive) | > 100 µM (inactive) | > 100 µM (inactive) | > 100 µM (inactive) | 99.1 µM (inactive) |
| O=C(O)Cc1ccc(/N=N/c2c(O)c(C(=O)O)cc3ccccc23)cc1 | > 100 µM (inactive) | – | > 100 µM (inactive) | > 100 µM (inactive) | > 100 µM (inactive) | > 100 µM (inactive) | > 100 µM (inactive) | > 100 µM (inactive) | > 100 µM (inactive) | > 100 µM (inactive) | 71.8 µM (inactive) | – | > 100 | > 100 µM (inactive) | > 100 µM (inactive) | > 100 µM (inactive) | > 100 µM (inactive) | > 100 µM (inactive) | > 100 µM (inactive) | > 100 µM (inactive) |
